Consider 11 compounds from patent US9181241B2, “Antagonists of chemokine receptors” (ChemoCentryx, Inc., priority 2012, dated 2015).

Structures are written as SMILES.

The first test deals with inflammatory cells recruited to the inflamed synovial fluid of the knee joints. Briefly: Rabbit model of destructive joint inflammation (rabbit LPS study). The test is classed as in vivo, New Zealand rabbits. The following applies: intra-articular LPS 10 ng, dosed orally 2 hours before and 4 hours after LPS, lavage at sixteen hours. The protocol: A rabbit LPS study was conducted essentially as described in Podolin, et al. J. Immunol. 169(11):6435-6444 (2002). Female New Zealand rabbits (approximately 2 kilograms) were treated intra-articularly in both knees with LPS (10 ng). The compound of interest, for example 1.016, (formulated in 1% methocel) or vehicle (1% methocel) was dosed orally at a 5 ml/kg dose volume at two times (2 hours before the intra-articular LPS injection and 4 hours after the intra-articular LPS injection). Sixteen hours after the LPS injection, knees were lavaged and cells counts were performed. Beneficial effects of treatment were determined by reduction in the number of inflammatory cells recruited to the inflamed synovial fluid of the knee joints.
Consider `Cc1c(Cl)c(C(F)(F)F)nn1C(CO)C(=O)N1CCCc2c1cnn2-c1ccc(F)cc1` (centres unmarked) [Example 1.016], for which the “reduction in the number of inflammatory cells recruited to the inflamed synovial fluid of the knee joints” value is “significant reduction in recruited inflammatory cells”.

The target in a further test is T1, CCR1 (Homo sapiens, UniProt P32246).
T1 construct: host or cells: THP-1 cells or isolated human CD14+ monocytes
T1 sequence (P32246 1-355): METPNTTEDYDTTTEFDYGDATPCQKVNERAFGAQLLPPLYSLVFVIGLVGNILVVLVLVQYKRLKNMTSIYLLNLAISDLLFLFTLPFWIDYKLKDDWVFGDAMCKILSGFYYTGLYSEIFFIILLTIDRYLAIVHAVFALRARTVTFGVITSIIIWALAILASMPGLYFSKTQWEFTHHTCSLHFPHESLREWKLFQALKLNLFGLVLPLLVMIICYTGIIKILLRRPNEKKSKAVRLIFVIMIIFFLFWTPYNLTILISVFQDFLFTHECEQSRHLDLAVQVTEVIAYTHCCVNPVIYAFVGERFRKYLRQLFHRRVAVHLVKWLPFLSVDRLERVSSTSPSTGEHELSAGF
Put plainly: Chemotaxis assay (CTX): inhibition of CCR1 mediated migration of THP-1 or monocyte cells. The test is classed as cell-based. The following applies: class symbols; activity for either the chemotaxis assay or binding assay. How it is done: THP-1 cells were obtained from ATCC (TIB-202) and cultured as a suspension in RPMI-1640 medium supplemented with 2 mM L-glutamine, 1.5 g/L sodium bicarbonate, 4.5 g/L glucose, 10 mM HEPES, 1 mM sodium pyruvate, 0.05% 2-mercaptoethanol and 10% FBS. Cells were grown under 5% CO2/95% air, 100% humidity at 37° C. and subcultured twice weekly at 1:5 (cells were cultured at a density range of 2×10^5 to 2×10^6 cells/mL) and harvested at 1×10^6 cells/mL. THP-1 cells express CCR1 and can be used in CCR1 binding and functional assays.
Monocytes were isolated from human buffy coats using the Miltenyi bead isolation system (Miltenyi, Auburn, Calif.). Briefly, following a Ficoll gradient separation to isolate peripheral blood mononuclear cells, cells were washed with PBS and the red blood cells lysed using standard procedures. Remaining cells were labeled with anti-CD14 antibodies coupled to magnetic beads (Miltenyi Biotech, Auburn, Calif.). Labeled cells were passed through AutoMACS (Miltenyi, Auburn, Calif.) and positive fraction collected. Monocytes express CCR1 and can be used in CCR1 binding and functional assays.
Chemotaxis assays were performed using 5 μm pore polycarbonate, polyvinylpyrrolidone-coated filters in 96-well chemotaxis chambers (Neuroprobe; Gaithersburg, Md.) using chemotaxis buffer (Hank's balanced salt solution (HBSS) and 1% FBS). CCR1 chemokine ligands (i.e., MIP-1α, CCL15/Leukotactin; R&D Systems; Minneapolis, Minn.) are use to evaluate compound mediated inhibition of CCR1 mediated migration. Other chemokines (i.e., SDF-1α; R&D Systems; Minneapolis, Minn.) are used as specificity controls. The lower chamber was loaded with 29 μl of chemokine (i.e., 0.1 nM CCL15/Leukotactin) and varying amounts of compound; the top chamber contained 100,000 THP-1 or monocyte cells in 20 μl. The chambers were incubated 1-2 hours at 37° C., and the number of cells in the lower chamber quantified either by direct cell counts in five high powered fields per well or by the CyQuant assay (Molecular Probes), a fluorescent dye method that measures nucleic acid content, and by measuring with a Spectrafluor Plus (Tecan). The computer program Prism from GraphPad, Inc. (San Diego, Calif.) was used to calculate IC50 values. IC50 values are those compound concentrations required to inhibit the number of cells responding to a CCR1 agonist by 50%.
A word on the IC50: it is the point on the concentration scale where inhibition reaches its midpoint. Read a high IC50 as a need for much substance. Consider `Cc1nn(CC(=O)N2CCCc3c2cnn3-c2ccc(F)cc2)c(-c2ncccn2)c1Cl`, for which the IC50 is under 1000 nM. The compound `O=C(Cn1nc(C(F)(F)F)c2c1OCCC2)N1CCCc2c1cnn2-c1ccc(F)cc1` displayed an IC50 of under 1000 nM.

In turn, `CCC(C(=O)N1c2cnn(-c3ccc(F)cc3)c2CCC1C)n1nc(C(F)(F)F)cc1C` (centres unmarked) came in with an IC50 of under 1000 nM. For the compound `O=C(Cn1cnc2ncccc21)N1CCCc2c1cnn2-c1ccc(F)cc1`, the IC50 was 2500 to 12500 nM. Consider `Cc1c(Cl)c(C(F)(F)F)nn1C(CO)C(=O)N1CCCc2c1cnn2-c1ccc(F)cc1` (centres unmarked) [drawing 103], for which the IC50 was under 1000 nM. As for `CCC(C(=O)N1CCCc2c1cnn2-c1ccc(F)cc1)n1nc(-c2ncccn2)c(Cl)c1C` (centres unmarked), the IC50 was under 1000 nM. Same read-out and setting: the result for `Cc1c(Cl)c(C(F)(F)F)nn1CC(=O)N1CCCc2c1cnn2-c1ccc(Cl)cc1` reads under 1000 nM; that for `COCC(C(=O)N1CCCc2c1cnn2-c1ccc(F)cc1)n1nc(C(F)(F)F)c(Cl)c1C` (centres unmarked), under 1000 nM. Still for that read-out and setting: in the case of `Cc1ccnn1CC(=O)N1CCCc2c1cnn2-c1ccc(F)cc1` it was under 1000 nM. As for `Cc1nn(-c2ccc(F)cc2)c2c1N(C(=O)Cn1nc(C(F)(F)F)c(Cl)c1C)CCC2`, the IC50 was under 1000 nM.
